Laboratory results published in US11702400B2, “Salt types, crystal forms, and preparation methods for benzopyrazole compounds as RHO kinase inhibitors” (MEDSHINE DISCOVERY INC., priority 2019, dated 2023).

Tests used:
[1] = Accelerated stability test of the crystal form A of the compound of formula (II-1); type: physicochemical; conditions: 40° C./75% RH
Description: Accelerated stability test: each sample was weighed 0.8 g (accelerated 1 month, accelerated 2 months) or 1.2 g (accelerated 3 months, accelerated 6 months) into double-layer low-density polyethylene (LDPE) bags, and each layer of LDPE bags was pierced and sealed, and then the LDPE bags were put into aluminum foil bags and heat sealed, respectively, and put into 40° C./75% RH conditions for investigation.

[2] = Influence factor stability test of the crystal form A of the compound of formula (II-1); type: physicochemical
Description: High humidity (25° C./92.5% RH): 1 g of each sample was weighed and the sample was placed in an open flat weighing bottle (70×35 mm) under 25° C./92.5% RH conditions, and then placed in a comprehensive drug stability chamber (25° C./92.5% RH) for investigation.
High temperature (60° C.): 1 g of each sample was weighed and the sample was placed in an open flat weighing bottle under 60° C. conditions, and then placed in a blast drying oven (60° C.) for investigation.
Illumination: 1 g of each sample was weighed. The samples with illumination condition were placed in a clean watch glass, spread into a thin layer and put into 5000±500 lux (visible light) with 90 μw/cm^2 (UV) conditions for illumination.

[3] = Solid stability test of the crystal form A of the compound of formula (II-1) (XRPD); type: physicochemical
Description: About 10 mg of the crystal form was accurately weighed and added to a dry and clean glass flask, spread into a thin layer, covered with aluminum foil, pierced small holes and placed under the influence factor test conditions and under accelerated conditions. Samples placed under illumination (visible light 1200000 Lux, UV 200 W) conditions were placed in clear glass flasks, fully exposed, and samples used for XRPD detection were placed separately.
After the samples were removed at the time point, the cover was covered, and the flask was sealed using sealing film, and stored in −20° C. refrigerator. When preparing the sample, the sample was removed from the refrigerator, restored to room temperature; 10 mL of 80% ACN was added, and the sample was dissolved by sonication for 2 min to obtain a solution with a concentration of about 1 mg/mL, then the liquid phase was used for injection analysis, and the detection results were compared with the initial detection results on day 0.
Preparation of standard solution on day 0: About 10 mg of the crystal was weighed and added to a 10 mL volumetric flask, dissolved with 80% ACN and the volume was fixed to the scale.

[4] = Accelerated stability test of the crystal form A of the compound of formula (II-1); type: physicochemical; conditions: long-term placement conditions
[5] = Pharmacokinetic study of the crystal form A of the compound of formula (II-1) in Beagle dogs; type: in vivo
Description: Experimental purpose: To study the pharmacokinetics of the compounds in Beagle dogs
Experimental materials: Beagle dogs (12, half male and half female)
Experimental procedure: The pharmacokinetic characteristics of the compounds were tested in Beagle dogs after intravenous (IV) and oral (PO) administration using standard protocols. The candidate compounds were prepared into 0.5 mg/mL and 1.5 mg/mL clarified solutions and administrated to Beagle dogs for single intravenous injection and oral administration. The solvent for both intravenous and oral administration was 5% DMSO/95% (10% hydroxypropyl β-cyclodextrin) aqueous solution. 12 beagle dogs were used in this project, 6 beagle dogs (half male and half female) were administered intravenously at a dose of 1 mg/kg and plasma samples were collected at […], 0.5, 1, 2, 4, 8, 12, 24, 36, 48 and 72 h after administration, and the other 6 beagle dogs (half male and half female) were administered orally by gavage at a dose of 7.5 mg/kg and plasma samples were collected at 0.25, 0.5, 1, 2, 4, 8, 12, 24, 36, 48 and 72 h after administration. 15 μL of plasma sample was added to a 96-well plate, and 300 μL of internal standard working solution (MeOH (containing 1.00 ng/mL Verapamil and 0.1% formic acid (FA)): ACN (v:v, 50:50) solution) was added to precipitate the proteins, the 96-well plate was shaken for 15 min, followed by centrifugation at 4° C., 3220 g for 15 min. 150 μL of supernatant was placed in a new 96-well plate with 150 μL of aqueous solution containing 0.1% formic acid (FA) and shaken for 10 min, and then centrifuged at 4° C., 3220 g for 5 min. The sample was directly injected, and the plasma drug concentration was quantitatively analyzed by LC-MS/MS analysis method, and pharmacokinetic parameters were calculated, such as peak concentration (Cmax), clearance rate (CL), half-life (T1/2), […] (Vdss), area under the drug-time curve (AUC0-last), bioavailability (F), etc.

- Content ([1]; 0 day): 99.5%
- Impurity at RRT 0.66 ([1]; 0 day): 0.06%
- Impurity at RRT 0.85 ([1]; 0 day): 0.34%
- Impurity at RRT 0.90 ([1]; 0 day): 0.02%
- Impurity at RRT 1.64 ([1]; 0 day): 0.06%
- Total impurities ([1]; 0 day): 0.46%
- Content ([1]; 1 month): 100.0%
- Impurity at RRT 0.66 ([1]; 1 month): 0.06%
- Impurity at RRT 0.85 ([1]; 1 month): 0.36%
- Impurity at RRT 0.90 ([1]; 1 month): 0.02%
- Impurity at RRT 1.64 ([1]; 1 month): 0.05%
- Total impurities ([1]; 1 month): 0.47%
- Content ([1]; 2 months): 99.6%
- Impurity at RRT 0.66 ([1]; 2 months): 0.06%
- Impurity at RRT 0.85 ([1]; 2 months): 0.33%
- Impurity at RRT 0.90 ([1]; 2 months): 0.03%
- Impurity at RRT 1.64 ([1]; 2 months): 0.04%
- Total impurities ([1]; 2 months): 0.39%
- Content ([1]; 3 months): 98.8%
- Impurity at RRT 0.66 ([1]; 3 months): 0.06%
- Impurity at RRT 0.85 ([1]; 3 months): 0.33%
- Impurity at RRT 0.90 ([1]; 3 months): 0.04%
- Impurity at RRT 1.64 ([1]; 3 months): 0.04%
- Total impurities ([1]; 3 months): 0.39%
- Content ([2]; 0 day): 99.5%
- Impurity at relative retention time (RRT) 0.66 ([2]; 0 day): 0.06%
- Impurity at relative retention time (RRT) 0.85 ([2]; 0 day): 0.34%
- Impurity at relative retention time (RRT) 0.90 ([2]; 0 day): 0.02%
- Impurity at relative retention time (RRT) 1.64 ([2]; 0 day): 0.06%
- Total impurities ([2]; 0 day): 0.46%
- Content ([2]; 25° C./92.5% RH, 1 month): 98.9%
- Impurity at relative retention time (RRT) 0.66 ([2]; 25° C./92.5% RH, 1 month): 0.06%
- Impurity at relative retention time (RRT) 0.85 ([2]; 25° C./92.5% RH, 1 month): 0.32%
- Impurity at relative retention time (RRT) 0.90 ([2]; 25° C./92.5% RH, 1 month): 0.03%
- Impurity at relative retention time (RRT) 1.64 ([2]; 25° C./92.5% RH, 1 month): 0.05%
- Total impurities ([2]; 25° C./92.5% RH, 1 month): 0.43%
- Content ([2]; 60° C., 1 month): 99.6%
- Impurity at relative retention time (RRT) 0.66 ([2]; 60° C., 1 month): 0.06%
- Impurity at relative retention time (RRT) 0.85 ([2]; 60° C., 1 month): 0.31%
- Impurity at relative retention time (RRT) 0.90 ([2]; 60° C., 1 month): 0.06%
- Impurity at relative retention time (RRT) 1.64 ([2]; 60° C., 1 month): 0.04%
- Total impurities ([2]; 60° C., 1 month): 0.43%
- Content ([2]; Illumination, 10 days): 97.6%
- Impurity at relative retention time (RRT) 0.66 ([2]; Illumination, 10 days): 0.09%
- Impurity at relative retention time (RRT) 0.85 ([2]; Illumination, 10 days): 0.31%
- Impurity at relative retention time (RRT) 0.90 ([2]; Illumination, 10 days): 0.02%
- Impurity at relative retention time (RRT) 1.64 ([2]; Illumination, 10 days): 0.05%
- Total impurities ([2]; Illumination, 10 days): 0.51%
- stability in influence factor test (conclusion in words) ([2]; illumination, high temperature and high humidity): stable
- Crystal form ([3]; 0 day): Crystal form A
- solid stability (conclusion in words) ([3]; 92.5% high humidity conditions): crystal transformation will occur
- Crystal form ([3]; High humidity (relative humidity 75%, open), 5 days): Crystal form A
- Crystal form ([3]; High humidity (relative humidity 75%, open), 10 days): Crystal form A
- Crystal form ([3]; High humidity (relative humidity 92.5%, open), 5 days): Crystal form C
- Crystal form ([3]; High humidity (relative humidity 92.5%, open), 10 days): Crystal form C
- Crystal form ([3]; High temperature (60° C., open), 5 days): Crystal form A
- Crystal form ([3]; High temperature (60° C., open), 10 days): Crystal form A
- Crystal form ([3]; High temperature and humidity (40° C. relative humidity 75%, open), 5 days): Crystal form A
- Crystal form ([3]; High temperature and humidity (40° C. relative humidity 75%, open), 10 days): Crystal form A
- Crystal form ([3]; High temperature and humidity (60° C. relative humidity 75%, open), 5 days): Crystal form A
- Crystal form ([3]; High temperature and humidity (60° C. relative humidity 75%, open), 10 days): Crystal form A
- Crystal form ([3]; Illumination (total illuminance = 1.2 × 10^6 Lux·hr/near UV = 200 w·hr/m^2, open), 5 days): Crystal form A
- Crystal form ([3]; Illumination (total illuminance = 1.2 × 10^6 Lux·hr/near UV = 200 w·hr/m^2, open), 10 days): Crystal form A
- solid stability (conclusion in words) ([3]; high temperature, 75% humidity and strong illumination conditions): good stability
- stability in accelerated test (conclusion in words) [4]: stable
- Clearance rate CL ([5]; Beagle dogs, IV 1 mg/kg): 22.3 mL/min/kg
- Half-life T1/2 (IV) ([5]; Beagle dogs, IV 1 mg/kg): 12.4 h
- Tissue distribution Vdss ([5]; Beagle dogs, IV 1 mg/kg): 18.6 L/kg
- Bioavailability F ([5]; Beagle dogs, IV 1 mg/kg, PO 7.5 mg/kg): 90.4%
- Area under drug-time curve AUC0-last PO ([5]; Beagle dogs, PO 7.5 mg/kg): 12.6 µM·h
- Cmax ([5]; Beagle dogs, half male and half female, PO 7.5 mg/kg, read-out: Peak concentration Cmax): 834 nM
- pharmacokinetic properties (conclusion in words) ([5]; beagle dogs): good pharmacokinetic properties
Compound: COc1cccc(C(CN)NC(=O)c2cc(-c3ccc4[nH]nc(C)c4c3)ccn2)c1.Cl.Cl (stereo not drawn)
